Assay results reported in ChEMBL document CHEMBL5370660, “Design of a Supersoft Topical JAK Inhibitor, Which Is Effective in Human Skin but Rapidly Deactivated in Blood” (J Med Chem, 2023).

Tests used:
[1] = target: Tyrosine-protein kinase JAK1 (Homo sapiens, UniProt P23458); assay: Inhibition of GST-fused JAK1 (866 to 1154 residues)(unknown origin) using FITC-Ahr-KKSRGDYMTMQIG-NH2 peptide as substrate incubated for 30 mins in presence of ATP by caliper microfluidic mobility shift assay
[2] = Metabolic stability in human skin S9 fraction measured upto 120 mins by LC-MS analysis; format: ADME, subcellular
[3] = Saturation solubility of compound in PEG400/transcutol/benzyl alcohol/water mixture using crystalline form of sample; format: physicochemical
[4] = Stability of compound in fresh human skin explant using Franz diffusion cell model assessed as compound concentration in dermis at 3 % administered topically preincubated overnight followed by fresh media replacement in receiver fluid without compound and subsequently stimulated with IL-4/IL-13 measured after 40 hrs by LC-MS/MS analysis; format: ADME, tissue-based, Skin of body; conditions: topical or ocular, read-out: Ct
[5] = target: T1, Eukaryotic translation initiation factor 2-alpha kinase 3 (Homo sapiens, UniProt Q9NZJ5); assay: Inhibition of EIF2AK3 (unknown origin)
T1 sequence (Q9NZJ5 whole entry): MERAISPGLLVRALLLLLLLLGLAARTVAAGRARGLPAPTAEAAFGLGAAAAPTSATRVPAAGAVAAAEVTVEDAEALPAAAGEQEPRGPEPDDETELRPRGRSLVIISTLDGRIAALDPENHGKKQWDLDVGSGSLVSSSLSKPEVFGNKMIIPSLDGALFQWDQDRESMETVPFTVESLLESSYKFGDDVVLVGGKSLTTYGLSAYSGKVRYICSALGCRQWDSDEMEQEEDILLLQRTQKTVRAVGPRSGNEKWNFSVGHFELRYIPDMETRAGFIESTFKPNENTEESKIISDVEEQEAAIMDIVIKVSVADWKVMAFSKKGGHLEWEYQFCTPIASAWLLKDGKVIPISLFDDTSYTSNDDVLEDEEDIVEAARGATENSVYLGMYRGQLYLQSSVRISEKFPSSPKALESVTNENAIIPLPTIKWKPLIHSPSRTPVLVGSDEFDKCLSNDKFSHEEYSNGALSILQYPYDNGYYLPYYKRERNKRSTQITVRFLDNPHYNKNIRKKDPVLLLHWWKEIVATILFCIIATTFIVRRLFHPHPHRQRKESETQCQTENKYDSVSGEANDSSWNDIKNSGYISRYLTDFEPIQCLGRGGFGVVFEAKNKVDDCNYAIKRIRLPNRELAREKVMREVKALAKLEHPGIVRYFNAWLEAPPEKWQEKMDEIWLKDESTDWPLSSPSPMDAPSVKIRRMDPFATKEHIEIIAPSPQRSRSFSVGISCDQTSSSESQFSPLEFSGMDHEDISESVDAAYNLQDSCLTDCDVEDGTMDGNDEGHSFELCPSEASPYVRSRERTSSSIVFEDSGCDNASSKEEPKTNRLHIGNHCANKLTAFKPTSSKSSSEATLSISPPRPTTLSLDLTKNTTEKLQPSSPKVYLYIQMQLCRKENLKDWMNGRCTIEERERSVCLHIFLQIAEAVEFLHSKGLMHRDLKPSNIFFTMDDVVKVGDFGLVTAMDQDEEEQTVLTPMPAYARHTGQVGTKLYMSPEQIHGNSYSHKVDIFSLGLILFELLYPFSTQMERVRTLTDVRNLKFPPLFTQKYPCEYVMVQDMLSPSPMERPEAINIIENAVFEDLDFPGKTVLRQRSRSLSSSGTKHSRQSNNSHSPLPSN

[6] = target: T2, Mitogen-activated protein kinase kinase kinase 2 (Homo sapiens, UniProt Q9Y2U5); assay: Inhibition of MAP3K2 (unknown origin)
T2 sequence (Q9Y2U5 whole entry): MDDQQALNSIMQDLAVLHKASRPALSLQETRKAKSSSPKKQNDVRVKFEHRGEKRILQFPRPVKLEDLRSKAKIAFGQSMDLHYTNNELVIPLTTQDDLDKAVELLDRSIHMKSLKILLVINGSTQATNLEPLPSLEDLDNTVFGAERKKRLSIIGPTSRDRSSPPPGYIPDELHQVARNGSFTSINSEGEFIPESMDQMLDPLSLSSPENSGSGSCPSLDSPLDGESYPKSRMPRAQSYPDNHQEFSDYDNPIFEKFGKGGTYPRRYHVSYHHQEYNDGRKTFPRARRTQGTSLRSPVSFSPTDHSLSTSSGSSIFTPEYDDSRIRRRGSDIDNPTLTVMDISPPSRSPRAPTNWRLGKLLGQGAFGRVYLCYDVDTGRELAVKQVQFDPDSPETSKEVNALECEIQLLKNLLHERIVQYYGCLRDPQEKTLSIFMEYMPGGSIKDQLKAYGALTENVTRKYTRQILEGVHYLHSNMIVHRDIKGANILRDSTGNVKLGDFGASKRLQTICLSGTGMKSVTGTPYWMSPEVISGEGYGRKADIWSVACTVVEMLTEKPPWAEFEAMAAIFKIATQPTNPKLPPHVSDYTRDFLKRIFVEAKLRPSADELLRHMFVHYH

Chain of Tyrosine-protein kinase JAK1 (P23458 whole entry, the tested form may be a part): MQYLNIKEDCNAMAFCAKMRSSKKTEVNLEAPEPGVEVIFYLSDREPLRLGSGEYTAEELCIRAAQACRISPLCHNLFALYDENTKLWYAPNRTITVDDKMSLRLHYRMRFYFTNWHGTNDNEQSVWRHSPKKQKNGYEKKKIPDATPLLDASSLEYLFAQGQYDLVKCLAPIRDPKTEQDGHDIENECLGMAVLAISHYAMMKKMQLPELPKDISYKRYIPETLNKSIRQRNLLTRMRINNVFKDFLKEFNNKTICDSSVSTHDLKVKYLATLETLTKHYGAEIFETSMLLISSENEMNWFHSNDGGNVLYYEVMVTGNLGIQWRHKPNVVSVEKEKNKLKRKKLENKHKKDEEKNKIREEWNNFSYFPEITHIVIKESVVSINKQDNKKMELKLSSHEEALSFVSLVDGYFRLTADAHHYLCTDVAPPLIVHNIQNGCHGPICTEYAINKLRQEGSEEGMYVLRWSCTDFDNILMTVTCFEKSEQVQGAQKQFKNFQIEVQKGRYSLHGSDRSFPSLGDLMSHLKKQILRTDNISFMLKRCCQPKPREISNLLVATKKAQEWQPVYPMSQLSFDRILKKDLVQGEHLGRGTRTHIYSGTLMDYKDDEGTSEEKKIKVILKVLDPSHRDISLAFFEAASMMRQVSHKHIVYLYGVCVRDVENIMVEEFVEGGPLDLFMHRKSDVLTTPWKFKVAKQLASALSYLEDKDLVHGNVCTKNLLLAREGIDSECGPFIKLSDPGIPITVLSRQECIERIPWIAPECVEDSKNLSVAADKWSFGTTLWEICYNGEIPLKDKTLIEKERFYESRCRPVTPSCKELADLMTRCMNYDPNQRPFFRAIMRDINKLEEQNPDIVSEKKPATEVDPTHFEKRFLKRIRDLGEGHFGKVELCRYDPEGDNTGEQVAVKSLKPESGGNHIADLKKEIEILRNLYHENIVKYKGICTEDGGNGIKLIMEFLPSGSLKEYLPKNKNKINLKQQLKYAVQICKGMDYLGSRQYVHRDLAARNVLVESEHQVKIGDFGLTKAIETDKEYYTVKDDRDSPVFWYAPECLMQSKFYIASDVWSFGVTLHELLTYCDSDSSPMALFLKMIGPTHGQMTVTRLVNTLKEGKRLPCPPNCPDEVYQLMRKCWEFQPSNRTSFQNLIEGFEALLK

Compound: COC[C@@H](C)OC(=O)Cc1ccc(Nc2cc(Nc3ccccc3OC)c(C(N)=O)cn2)nc1
- IC50 [1]: 5 nM
- half-life [2]: 42 min
- solubility thermodynamic [3]: > 18 mg/mL
- concentration at 40 h, 3 % [4]: 59 µM
- IC50 [5]: < 100 nM
- IC50 [6]: < 100 nM
